Our source for the inhibition and IC50 values is patent publication US20250281424A1 (New York Blood Center, Inc, priority 2020, published 2025).

The target of this experiment is T1, human PF4 (Homo sapiens, UniProt P02776).
T1 construct: PF4 is a 70 amino acid, lysine-rich 7.8 kDa platelet-specific protein; made in house; host or cells: Escherichia coli BL21DE3 pLysS (pT7-7) and/or Drosophila S2 cells
T1 sequence (P02776 32-101): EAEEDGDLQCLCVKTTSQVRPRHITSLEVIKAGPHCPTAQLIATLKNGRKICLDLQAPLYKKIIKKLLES
Briefly: Inhibition of PF4 tetramer formation (BS3 cross-linking, SDS-PAGE). The experiment is classed as biochemical. The settings on record: for inhibition at 5 µM: 5 μM inhibitor; for inhibition at 5 µM / inhibition at 10 µM: read-out: % inhibition of PF4 tetramer formation at single concentration of inhibitor; for inhibition at 10 µM: 10 μM inhibitor (column A); for IC50: read-out: IC50 of PF4 tetramer formation inhibition. On the procedure: Compounds of Examples 1-38, 65-301, 303, 305, 307, 309, 311, 313, 314, 316, and 318-404 were tested using SDS PAGE analysis of BS3 crosslinked PF4 for their ability to prevent PF4 tetramer formation. […] See, Suvarna et al., Throm. Res, 122:211-220 (2008), which is hereby incorporated by reference, at least for a detailed description of this technique.
cDNA encoding human PF4 was cloned into the plasmid μMT/BiPN5-His A (Invitrogen Corp., Carlsbad CA) for expression in the Drosophila Expression System (Invitrogen, Carlsbad, CA). Cloning was performed using Bg1 II and Age I cloning sites. A hexanucleotide encoding Bg1 II site was then eliminated by site-directed mutagenesis so that the expressed protein contained full-length wild type (wt) PF4 or PF4^K50E with an identical sequence as their counterparts expressed in E. coli. See, method described in Sachais et al (Sachais, B. S. et al. (2012). Blood 119(25): 5955-5961). PF4 expression was induced by adding copper sulfate (0.5 mM). The induced S2 cells were incubated in serumfree Insect-Xpress™ media (Lonza, Walkersville, MD) for 3-5 days; supernatants were collected, sodium azide (0.02% final concentration) and EDTA (2.5 mM final concentration) were added, and the media were filtered through an Express® PLUS 0.22 μm filter (Millipore Corp., Billerica, MA).
Wild-type (WT) human PF4 in the pT7-7 vector (Novagen, Madison, WI) was expressed in the Escherichia coli strain BL21DE30 pLysS (Stratagene, La Jolla, CA), and purified and characterized as described by Rauova et al. (Rauova, L. et al. (2006). Blood 107(6): 2346-2353) and Park et al., (Blood, 75:1290-1295 (1990)), which are hereby incorporated by reference. Briefly, recombinant protein was isolated from the supernatant of the bacterial lysate by affinity chromatography using a HiTrap high-performance (HP) affinity column. WT PF4 was purified from the media on a heparin HiTrap® column on an ÄTKAPrime™ system (GE Healthcare) at 4° C. in Tris (10 mM), EDTA (1 mM), and pH 8 buffer. Media was loaded in buffer containing NaCl (0.5 M) and PF4 was eluted at 1.8 M NaCl using a linear gradient. Fractions containing purified PF4 as detected by silver staining of 12% NuPAGE Bis-Tris gels (Invitrogen) were pooled, concentrated and buffer exchanged into 50 mM HEPES, 0.5 M NaCl, pH—7.2 using an Amicon® Ultra centrifugal filter (3K NMWL, Millipore Corp). Protein was quantified using a BCA assay.
Compounds of Examples 1-38, 65-196, and 209-228 were then tested for their ability to inhibit PF4 tetramer formation using a cross-linking assay as described in Rauova cited above. Specifically, hPF4 (10 μg/ml) in phosphate-buffered saline (PBS) was incubated at 37° C. for 15 min in the absence of the antagonistic compounds (control sample) and presence of compounds. Cross-linking and SDS-PAGE analysis were then performed as described in “Analysis of PF4 multimerization” of Rauova. The relative amounts of PF4 in each of the monomer, dimer, trimer and tetramer form were calculated by analyzing the samples on a 12% SDS-polyacrylamide gel under reducing conditions. Bands were quantified using the Kodak ID Image Analysis system (Kodak, Rochester, NY). The SigmaMarker™ reagent served as the molecular weight standard. Data was compiled and bar graphed as % PF4 for the tetramer, trimer, dimer, and monomer as a function of concentration for the test and control samples.
This experiment was performed in a manner similar to experiment 1, but PF4 (10 μg/ml) in PBS was independently incubated with compounds of Examples 1-38, 65-196, and 209-228 for 60 min at room temperature, followed by the addition of cross-linking reagent bis(sulfosuccinimidyl)suberate (0.2 mM) for 30 min at room temperature. The reaction was stopped by adding NuPAGE® lithium dodecyl sulfate (LDS) sample buffer, and denatured by heating to 70° C. for 10 min according to the manufacturer's instructions. […]

With `O=C(c1ccc2c(c1)C(=O)C(C(=O)NCCCc1ccccc1)C2=O)c1ccc2c(c1)C(=O)C(C(=O)NCCCc1ccccc1)C2=O` (stereo not shown) [Example 24, 5,5′-carbonylbis(1,3-dioxo-indan-2-carboxylic acid (3-(phenyl)propyl)-amide)], the inhibition at 5 µM worked out at 83%, the inhibition at 10 µM was 89% and the IC50 worked out at 5110 nM.
On the same counts, the results for `O=C(c1ccc2c(c1)C(=O)C(C(=O)NCc1ccccc1)C2=O)c1ccc2c(c1)C(=O)C(C(=O)NCc1ccccc1)C2=O` (stereo not shown) [Example 25, 5,5′-carbonylbis(1,3-dioxo-indan-2-carboxylic acid ((phenyl)methyl)-amide)] are 63%, 70% and 6240 nM.
For `O=C(c1ccc2c(c1)C(=O)C(C(=O)NCc1ccc(F)cc1)C2=O)c1ccc2c(c1)C(=O)C(C(=O)NCc1ccc(F)cc1)C2=O` (stereo not shown) [Example 26, 5,5′-carbonylbis(1,3-dioxo-indan-2-carboxylic acid ((4-fluorophenyl)methyl)-amide)], in that order: 59%, 66% and 3610 nM.
As for `CCOC(=O)CCNC(=O)C1C(=O)c2ccc(C(=O)c3ccc4c(c3)C(=O)C(C(=O)NCCC(=O)OCC)C4=O)cc2C1=O` (stereo not shown) [Example 27, 5,5′-carbonylbis(3-[(1,3-dioxo-indane-2-carbonyl)-amino]-propionic acid ethyl ester)], the IC50 worked out at 10800 nM.
Take `CCOC(=O)CNC(=O)C1C(=O)c2ccc(C(=O)c3ccc4c(c3)C(=O)C(C(=O)NCC(=O)OCC)C4=O)cc2C1=O` (stereo not shown) [Example 30, 5,5′-5,5′-carbonylbis([(1,3-dioxo-indane-2-carbonyl)-amino]-acetic acid ethyl ester)]: the inhibition at 5 µM amounted to 12% and the inhibition at 10 µM worked out at 58%.
On to `COc1ccc(NC(=O)C2C(=O)c3ccc(S(=O)(=O)c4ccc5c(c4)C(=O)C(C(=O)Nc4ccc(OC)cc4)C5=O)cc3C2=O)cc1` (stereo not shown) [Example 35, 5,5′-sulphonylbis(1,3-dioxo-indan-2-carboxylic acid (4-methoxyphenyl)-amide)], for which the inhibition at 5 µM came to 54%, the inhibition at 10 µM worked out at 77% and the IC50 was 2850 nM.
Regarding `O=C(Nc1ccccc1)C1C(=O)c2ccc(S(=O)(=O)c3ccc4c(c3)C(=O)C(C(=O)Nc3ccccc3)C4=O)cc2C1=O` (stereo not shown) [Example 37, 5,5′-sulphonylbis(1,3-dioxo-indan-2-carboxylic acid (phenyl)-amide)], the IC50 was roughly 1000 nM.
In the case of `Cc1cccc(NC(=O)C2C(=O)c3ccc(C(=O)c4ccc5c(c4)C(=O)C(C(=O)Nc4cccc(C)c4)C5=O)cc3C2=O)c1` (stereo not shown) [Example 38, 5,5′-carbonylbis(1,3-dioxo-n-(m-tolyl)-2,3-dihydro-1h-indene-2-carboxamide)], the inhibition at 5 µM was determined as 74%, the inhibition at 10 µM was 88% and the IC50 was determined as 1070 nM.
`C=CCNC(=O)C1C(=O)c2ccc(C(=O)c3ccc4c(c3)C(=O)C(C(=O)NCC=C)C4=O)cc2C1=O` (stereo not shown) [Example 65, 5,5′-carbonylbis(n-allyl-1,3-dioxo-2,3-dihydro-1h-indene-2-carboxamide)]: the inhibition at 5 µM was 50% and the inhibition at 10 µM was 71%.
In the case of `COCCOCCNC(=O)C1C(=O)c2ccc(C(=O)c3ccc4c(c3)C(=O)C(C(=O)NCCOCCOC)C4=O)cc2C1=O` (stereo not shown) [Example 66, 5,5′-carbonylbis(n-(2-(2-methoxyethoxy)ethyl)-1,3-dioxo-2,3-dihydro-1h-indene-2-carboxamide)], the inhibition at 5 µM came out at 48% and the inhibition at 10 µM came to 86%.
On to `O=C(c1ccc2c(c1)C(=O)C(C(=O)NCCOCC(F)(F)F)C2=O)c1ccc2c(c1)C(=O)C(C(=O)NCCOCC(F)(F)F)C2=O` (stereo not shown) [Example 67, 5,5′-carbonylbis(1,3-dioxo-n-(2-(2,2,2-trifluoroethoxy)ethyl)-2,3-dihydro-1h-indene-2-carboxamide)], for which the inhibition at 5 µM is 0% and the inhibition at 10 µM was 20%.
As to `O=C(c1ccc2c(c1)C(=O)C(C(=O)NC1CCC1)C2=O)c1ccc2c(c1)C(=O)C(C(=O)NC1CCC1)C2=O` (stereo not shown) [Example 68, 5,5′-carbonylbis(n-cyclobutyl-1,3-dioxo-2,3-dihydro-1h-indene-2-carboxamide)], the inhibition at 5 µM was found to be 45%, the inhibition at 10 µM is 86% and the IC50 stood at 1540 nM.
On the same counts, the results for `COc1ccccc1NC(=O)C1C(=O)c2ccc(S(=O)(=O)c3ccc4c(c3)C(=O)C(C(=O)Nc3ccccc3OC)C4=O)cc2C1=O` (stereo not shown) [Example 69, 5,5′-sulfonylbis(n-(2-methoxyphenyl)-1,3-dioxo-2,3-dihydro-1h-indene-2-carboxamide)] are 60%, 85% and 1050 nM.
For the molecule `O=C(c1ccc2c(c1)C(=O)C(C(=O)NC1CCCC1)C2=O)c1ccc2c(c1)C(=O)C(C(=O)NC1CCCC1)C2=O` (stereo not shown) [Example 71, 5,5′-carbonylbis(n-cyclopentyl-1,3-dioxo-2,3-dihydro-1h-indene-2-carboxamide)], the inhibition at 5 µM is 2%, the inhibition at 10 µM was determined as 85% and the IC50 was 1000 nM.
In the case of `O=C(c1ccc2c(c1)C(=O)C(C(=O)NC1CCOCC1)C2=O)c1ccc2c(c1)C(=O)C(C(=O)NC1CCOCC1)C2=O` (stereo not shown) [Example 72, 5,5′-carbonylbis(1,3-dioxo-n-(tetrahydro-2h-pyran-4-yl)-2,3-dihydro-1h-indene-2-carboxamide)], the inhibition at 5 µM came to 43% and the inhibition at 10 µM is 52%.
On to `COCCNC(=O)C1C(=O)c2ccc(S(=O)(=O)c3ccc4c(c3)C(=O)C(C(=O)NCCOC)C4=O)cc2C1=O` (stereo not shown) [Example 73, 5,5′-sulfonylbis(n-(2-methoxyethyl)-1,3-dioxo-2,3-dihydro-1h-indene-2-carboxamide)], for which the inhibition at 5 µM was 0% and the inhibition at 10 µM was 0%.
Turning to `COCCNC(=O)C1C(=O)c2ccc(C(=O)c3ccc4c(c3)C(=O)C(C(=O)NCCOC)C4=O)cc2C1=O` (stereo not shown) [Example 74, 5,5′-carbonylbis(n-(2-methoxyethyl)-1,3-dioxo-2,3-dihydro-1h-indene-2-carboxamide)], the inhibition at 5 µM is 19% and the inhibition at 10 µM came out at 46%.
With `O=C1CC(=O)c2cc(-c3ccc4c(c3)C(=O)CC4=O)ccc21` [Example 75, 1h,1′h,2h,2′h,3h,3′h-[5,5′-biindene]-1,1′,3,3′-tetrone], the inhibition at 5 µM was 54% and the inhibition at 10 µM turned out to be 85%.
As to `O=C(c1ccc2c(c1)C(=O)C(C(=O)NCC1CC1)C2=O)c1ccc2c(c1)C(=O)C(C(=O)NCC1CC1)C2=O` (stereo not shown) [Example 76, N-(cyclopropylmethyl)-5-{2-[(cyclopropylmethyl)carbamoyl]-1,3-dioxo-2,3-dihydro-1H-indene-5-carbonyl}-1,3-dioxo-2,3-dihydro-1H-indene-2-carboxamide], the IC50 was determined as 2100 nM.
